This is an account of results in patent publication US6743806B2, “Active oxygen scavenger” (Otsuka Pharmaceutical Company, Limited, priority 2002, dated 2004).

Each structure is given as a SMILES string.

Experiment [1] in a line: Hydroxyl radical scavenging efficacy (Fenton system, DMPO spin trap, EPR). On the procedure: Hydroxyl radical scavenging efficacy of cilostazol was determined in air-saturated phosphate buffer (10 mM) at room temperature. The reaction was initiated by addition of a small aliquot (5 μL) of Fe^2+ solution (10 mM FeSO4 in 10 mM HCl) to a buffer containing cilostazol, H2O2 (0.12 mM) and 5,5-dimethyl-1-pyrroline-N-oxide (DMPO) (1 mM). The sample was transferred quickly to flat quartz electron paramagnetic resonance (EPR) cell, and measurements were started immediately.
The EPR spectra of the spin-adduct of DMPO with the hydroxyl radical: DMPO/.OH was observed when DMPO reacted with hydroxyl radical generated by the Fenton system. The EPR spectra (.OH) are shown in the accompanying FIG. 1. Scavenging of hydroxyl radicals was confirmed by using catalase (0.510 U/ml) (data not shown).

Experiment [2] can be described thus: Peroxyl radical absorbing capacity (PRAC) assay. As to conditions: 1 PRAC unit is the value of 1 μM of trolox, β-phycoerythrin fluorescence, 37° C. On the procedure:
According to the method described by Cao et al. (Cao G, Alessio HM, Cutler RG (1993), Oxygen-radical absorbance capacity assay for antioxidants, Free Radic. Biol. Med 14: 303-311), the assay is based on production of peroxyl radicals by 2,2′-azobis(2-amidinopropane) hydrochloride (3 mM), a peroxyl radical generator, with subsequent oxidation of the reporter protein, β-phycoerythrin (16.7 nM) in 24 well plates. Into each sample well, either 20 μl of phosphate buffer or 20 μl of each concentration of cilostazol was included. After adding 2,2′-azobis(2-amidinopropane) hydrochloride, the reaction mixture was incubated at 37° C. Loss of fluorescence was measured every 5 minutes at the emission of 590 nm and excitation of 485 nm using Fluorescence Plate Reader (Bio-Tek Instruments, Inc., Winooski, USA). The PRAC value of the compound is reflected in the increase of area under curve of fluorescence versus time. Trolox was used as a reference for PRAC assay. The fluorescence just prior to addition of the 2,2′-azobis(2-amidinopropane) hydrochloride was estimated as the 100% value for that sample. The PRAC values were calculated by the following equation: [formula]
where 1 PRAC unit is the value of 1 μM of trolox.
The time-dependent decrease of β-phycoerythrin fluorescence in the absence (blank) and the presence of different concentrations of cilostazol is shown, in the accompanying FIG. 2. […]

For the molecule `O=C1CCc2cc(OCCCCc3nnnn3C3CCCCC3)ccc2N1` [cilostazol, 6-[4-(1-cyclohexyl-1H-tetrazol-5-yl)butoxy]-3,4-dihydrocarbostyril], the “DMPO/.OH adduct EPR signals” value in experiment [1] (10^−5 M of cilostazol) is reported as “almost ameliorated”. Also, the IC50 in experiment [1] (DMPO/.OH adduct formation, Fenton system, phosphate buffer 10 mM, room temperature, EPR, read-out: concentration required for inhibiting hydroxyl radical formation (IC50)) came to 2580 ± 70 nM. Further, the values for the PRAC value in experiment [2] (10^−4 M cilostazol) and in experiment [2] (10^−6 M cilostazol) were 1.938 unit and 1.325 unit, respectively.
